Assay results as given in patent US20130324535A1, “USE OF SIGMA LIGANDS IN BONE CANCER PAIN” (LABORATORIOS DEL DR. ESTEVE, S.A., priority 2010, published 2013).
Structures can show the parent of a compound that is named as a salt. Where two headings read alike, the source gives them in different places.

Key:
[1] = system: tumor-induced bone pain (tactile allodynia)
Procedure: This study was conducted in two parts; the first phase determined the optimal dose level for the second phase.

[2] = system: sigma receptor; conditions: Sigma 1 and Sigma 2; cited from earlier work

Structure (SMILES): CN1CC[C@]23c4c5ccc(O)c4O[C@H]2[C@@H](O)C=C[C@H]3[C@H]1C5 [morphine]
- mitigation of allodynia (von Frey test) ([1]; Phase 1, morphine 1.25 mg/kg given at day 18): sub threshold dose
- mitigation of allodynia (von Frey test) ([1]; Phase 1, morphine 2.5 mg/kg given at day 18): able to mitigate allodynia with statistical significance
- mitigation of allodynia (von Frey test) ([1]; Phase 1, morphine 5 mg/kg given at day 18): able to mitigate allodynia with statistical significance
- effect on allodynia 24 hours after administration ([1]; Phase 2, morphine 5 mg/kg (positive control), 24 hours after administration): no significant effect

Structure (SMILES): Cc1cc(OCCN2CCOCC2)nn1-c1ccc2ccccc2c1 [example 1, 4-{2-[5-Methyl-1-(naphthalen-2-yl)-1H-pyrazol-3-yloxy]ethyl}morpholine hydrochloride]
- mitigation of allodynia (von Frey test) ([1]; Phase 2, example 1 alone 40 mg/kg, 30 minutes after administration): not at 40 mg/kg
- mitigation of allodynia (von Frey test) ([1]; Phase 2, example 1 alone 80 mg/kg, 30 minutes after administration): statistically significant mitigation of allodynia

Structure (SMILES): CC(C)=CCN1CCC2(C)c3cc(O)ccc3CC1C2C (stereo not shown) [pentazocine]
- affinity of the sigma receptors [2]: very high affinity
